Active and inactive are the calls of the source. How the calls were made is not given here.
Test: mammalian cell viability loss – absorbance, serum and serum-free conditions, cytotoxicity control for DAGLb inhibitor project, dose response (AID 602337)
Details: absorbance readout

| Structure (SMILES) | CC50 (with serum) | CC50 (without serum) |
| --- | --- | --- |
| COc1ccccc1-c1ccc(-c2cn(C(=O)N3CCCCC3Cc3ccccc3)nn2)cc1 (stereo not drawn) | 3.1 µM | > 100 µM (inactive) |
| O=C(N1CCCCC1c1ccccc1)n1cc(-c2ccc(-c3ccccc3)cc2)nn1 (stereo not drawn) | > 50 µM (inactive) | > 100 µM (inactive) |
| O=C(N1CCCCC1Cc1ccccc1)n1cc(-c2ccc(-c3ccccc3)cc2)nn1 (stereo not drawn) | 4.2 µM | > 100 µM (inactive) |
| COc1ccc(-c2ccc(-c3cn(C(=O)N4CCCCC4c4ccccc4)nn3)cc2)cc1 (stereo not drawn) | 5.9 µM | > 100 µM (inactive) |

— PubChem BioAssay AID602337 (The Scripps Research Institute Molecular Screening Center, 2012)
